One assay relates to Cat Papillary Muscles. The experiment in a line: Positive inotropic activity in isolated cat papillary muscles. To be noted: Felis catus, control = 100 percent, average of 2 to 8 muscles, read-out: Contractility of Papillary Muscle, peak response as percent of control; for activity at 100 µM: Compound Concentration 10^-4 M; for activity at 10 µM: Compound Concentration 10^-5 M. As for the experimental part:
Cats of either sex were anesthetized with Metofane (1,1-difluoro-2,2-dichloroethyl methyl ether, Pittman-Moore). Their hearts were immediately removed and the papillary muscles dissected and suspended in individual organ baths. A platinum hook secured one end of the muscle to an electrode mounted in the bottom of the bath, and a silk thread attached the tendon to a Statham isometric transducer. The baths contained Krebs-Henseleit solution (36° C., bubbled with 95 percent oxygen - 5 percent carbon dioxide) of the following millimolar composition: NaCl, 118; KCl, 4.5; CaCl2, 2.5; KH2 PO4, 1.1; MgSO4, 1.2; NaHCO3, 25; and glucose, 11.
A base-line tension of 1.5 g was applied to each muscle. Square-wave pulses (5.0 msec. in duration, three times threshold voltage) delivered through the hook electrode and a second electrode positioned near the top of the muscle evoked 12 contractions/minute, which were recorded on a Grass polygraph. After the muscles had equilibrated for 60 minutes, the recorder gain was adjusted so that the pen deflected 10 mm. The test compound was introduced in a solution of normal saline in an amount to bring the final concentration of the compound to 10^-5 or 10^-4 molar. Increases in contractility were tabulated as millimeters of pen deflection in excess of the baseline value. In each experiment the maximum contractility was measured. Test results are summarized in Table I and are expressed as percent of control (control=100 percent). Values are the average of results from 2 to 8 muscles.

For assay [1], the system named is anesthetized dog (ventricular contractility). The experiment in a line: Ventricular contractility in the anesthetized dog. The assay is classed as in vivo. To be noted: Canis lupus familiaris, iv; anesthetized mongrel dogs, i.v. bolus in normal saline; by interpolation; read-out: ED50, dose required to produce a peak increase in contractility of 50%. As to the method: Mongrel dogs of either sex ranging in weight from 7 to 14 kg were used. Anesthesia was induced with sodium pentobarbital (30 mg/kg, i.v.) and maintained with supplemental doses as required. A positive-pressure pump was used to ventilate the dogs through an endotracheal tube (18 strokes/minute, 20 ml/kg stroke^-1), and a heating pad kept the body temperature at 37°-38° C.
Femoral arterial blood pressure was measured through a polyethylene catheter filled with heparin solution (16 units/ml) and connected to a Statham pressure transducer. A strain-gauge arch sutured to the right ventricle of the heart measured cardiac contractility. Tension on the gauge was adjusted to 50 g and the gain of the recorder (Beckman dynograph) was set so that 50 g caused a 10-mm pen deflection. Cardiac contractile tension was measured as millimeters of pen deflection or grams of tension. The test compounds were administered as an i.v. bolus (2-5 ml) in a normal saline vehicle following a 30-45 minute equilibrium period. […] The maximum effects on contractility at various dose levels were determined and plotted and the dose required to produce a 50% increase in contractility (ED50) was determined by interpolation.

Assay [2] deals with conscious dogs (contractility, LVdP/dt). The experiment in a line: Cardiac contractility in conscious dogs. As to conditions: Canis lupus familiaris, po; conscious mongrel dogs, fasted eighteen hours, administered in gelatin capsules; by interpolation; read-out: ED50, dose required to produce a 50-percent increase in contractility. It counts as in vivo. The text has this:
Mongrel dogs of either sex weighing 15-36 kg were chronically instrumented to monitor peak systolic pressure, heart rate, left ventricular pressure and its first derivative, LVdP/dt at 60 mm of mercury. Under halothane-nitrous oxide anesthesia, a precalibrated Konigsberg P22 Pressure Transducer was implanted into the left ventricle through a stab wound at the apex. Following recovery from surgery, a minimum of two weeks was allowed to train the dogs to lie quietly for four-hour periods. This conditioning was necessary to obtain stable, reproducible results from day to day. Dogs were fasted eighteen hours before an experiment. Gross behavioral observations of animals were made throughout each study. Compounds or placebo (lactose) were administered in gelatin capsules. The maximum effects on contractility at various dose levels were determined and plotted and the dose required to produce a 50-percent increase in contractility (ED50) was determined by interpolation. The ED50 for the compound of Example 1 was determined to be 50 mcg/kg.

The record followed here is US4617302A, “Inotropic agents” (Eli Lilly and Company, priority 1984, dated 1986).

Regarding `O=C1CCC(c2ccc3c(c2)C2(CCCC2)C(=O)N3)=NN1` [Example 2, 5'-(1,4,5,6-tetrahydro-6-oxo-3-pyridazinyl)-spiro[cyclopentane-1,3'-[3H]indol]-2'(1'H)-one], in the assay with Cat Papillary Muscles, the activity at 100 µM amounted to 134% and the activity at 10 µM was 132%. For the same compound, the ED50 in assay [1] was 0.07 mg/kg.
As to `O=C1CCC(c2ccc3c(c2)C2(CCC2)C(=O)N3)=NN1` [Example 3, 5'-(1,4,5,6-tetrahydro-6-oxo-3-pyridazinyl)-spiro[cyclobutane-1,3'-[3H]indol]-2'(1'H)-one], in the assay on Cat Papillary Muscles, the activity at 100 µM was 132% and the activity at 10 µM was found to be 138%. The 50% effective dose (ED50) in assay [1] stood at 0.025 mg/kg.
Regarding `O=C1CCC(c2ccc3c(c2)C2(CC2)C(=O)N3)=NN1` [Example 1, 5'-(1,4,5,6-tetrahydro-6-oxo-3-pyridazinyl)-spiro[cyclopropane-1,3'-[3H]indol]-2'(1'H)-one], the ED50 is 0.05 mg/kg in assay [2] and 0.0019 mg/kg in assay [1].
